{"source": "PubChem BioAssay AID2842", "about": "(Southern Research Institute, 2010)", "data": [{"tested_on": "M. tuberculosis H37Rv growth inhibition", "test": "Mycobacterium tuberculosis H37Rv growth inhibition, putative kinase inhibitor library, confirmatory dose response (AID 2842);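 further: bacteria incubated one week before Alamar blue readout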", "units": {"IC90": "µg/mL"}, "values": [{"smiles": "CCOc1cc(-c2nnc(NC(=O)c3cccs3)o2)cc(OCC)c1OCC", "IC90": 3.02}, {"smiles": "Cc1ccc(NCCCn2c(C)c(C)n3c4c(=O)[nH]c(=O)n(C)c4nc23)c(C)c1", "IC90": 14.3}, {"smiles": "COc1cc2c3nnc(-c4ccc(Cl)cc4)c-3cn(Cc3ccccc3F)c2cc1OC", "IC90": 22.2}, {"smiles": "CC(C)C(=O)Nc1nnc(-c2ccccc2)o1", "IC90": 3.31}, {"smiles": "Cc1ccc2sc(N(CCCn3ccnc3)C(=O)COc3ccccc3)nc2c1C", "IC90": 5.39}, {"smiles": "COc1ccc(-n2nnc3c(SCC(N)=O)ncnc32)cc1", "IC90": 5.67}, {"smiles": "COc1ccc(C(=O)Nc2nc3c(s2)CCCC3)c(OC)c1", "IC90": 6.13}, {"smiles": "Cc1nc2ccc(NC(=O)Nc3cccc(Cl)c3)cc2s1", "IC90": 22.3}, {"smiles": "O=C(Nc1nnc(-c2ccc3c(c2)CCCC3)o1)C1CCCCC1", "IC90": 40.2}, {"smiles": "O=C(Nc1ccc(I)cc1)c1ccc([N+](=O)[O-])s1", "IC90": "< 0.2"}, {"smiles": "COc1cc2c(=O)c(C(=O)c3ccc(F)cc3)cn(Cc3ccc(C)cc3)c2cc1OC", "IC90": 7.24}, {"smiles": "COc1cccc(-c2nnc(NC(=O)/C=C/c3cccs3)o2)c1", "IC90": 3.55}, {"smiles": "Cc1cc(C)c2nc(N(CCCn3ccnc3)C(=O)c3cccs3)sc2c1", "IC90": 1.45}, {"smiles": "CC(C)CCn1c(N2CCN(Cc3cccc(Cl)c3)CC2)nc2c1c(=O)[nH]c(=O)n2C", "IC90": 14.1}, {"smiles": "COc1ccccc1C(=O)Nc1nnc(-c2ccccc2Cl)o1", "IC90": 3.23}, {"smiles": "COc1cccc(-c2nnc(NC(=O)c3ccc(Cl)s3)o2)c1", "IC90": "< 0.2"}, {"smiles": "COc1cc2ccccc2cc1C(=O)Nc1nnc(-c2cc(Cl)ccc2Cl)o1", "IC90": 27.6}, {"smiles": "CCOc1ccc2nc(N(CCCn3ccnc3)C(=O)c3cccs3)sc2c1", "IC90": 3.43}, {"smiles": "O=C(COc1ccc(Cl)cc1)N1CCN(c2ncnc3c2nnn3Cc2ccccc2)CC1", "IC90": 6.75}, {"smiles": "COc1cccc2sc(Nc3nnc(-c4cccs4)o3)nc12", "IC90": 3.36}, {"smiles": "Cc1ccc(-n2ncc3c(=O)n(CC(=O)Nc4ccc([N+](=O)[O-])cc4)cnc32)cc1", "IC90": 6.91}, {"smiles": "Cc1cccc2sc(NNC(=O)c3cc(-c4cccs4)nc4ccccc34)nc12", "IC90": 22.8}, {"smiles": "CCOC(=O)N1CCc2c(sc(NC(=O)c3ccc(F)cc3)c2C(N)=O)C1", "IC90": 1.89}, {"smiles": "COc1ccc(-c2nnc(Nc3nc4c(OC)cccc4s3)o2)cc1", "IC90": 23.6}, {"smiles": "COc1ccc(C(=O)Nc2nnc(-c3cc(C)ccc3C)o2)c(OC)c1", "IC90": 13.4}, {"smiles": "Cc1ccc(C)c(-c2nnc(NC(=O)/C=C/c3cccs3)o2)c1", "IC90": 54.5}, {"smiles": "COc1cccc(C(=O)N(CCCn2ccnc2)c2nc3ccc(C)cc3s2)c1OC", "IC90": 2.63}, {"smiles": "CCOC(=O)N1CCc2c(sc(NC(=O)CCOc3ccccc3)c2C(N)=O)C1", "IC90": 12.4}, {"smiles": "COc1ccc(C)c2sc(NNC(=O)c3nc4ccccc4s3)nc12", "IC90": 38}, {"smiles": "Cc1ccc(C)c(C(=O)Nc2nnc(-c3ccc(C)c(C)c3)o2)c1", "IC90": 2.66}, {"smiles": "CCOC(CNc1ncnc2c1cnn2-c1ccc(C)c(C)c1)OCC", "IC90": 21.8}, {"smiles": "O=C1C(Cl)=C(Nc2ccccc2O)C(=O)N1c1ccccc1", "IC90": 3.29}, {"smiles": "COc1cc2ccccc2cc1C(=O)Nc1nnc(-c2cc(C)ccc2C)o1", "IC90": 1.23}, {"smiles": "CC(C)(C)c1ccc(C(=O)N2CC(=O)Nc3ccc(Cl)cc3C2c2ccc(F)cc2)cc1", "note": "(stereo not given)", "IC90": 9.95}, {"smiles": "CCN1C(=O)CCc2cc(NS(=O)(=O)c3ccc(OCC(C)C)cc3)ccc21", "IC90": 18.3}, {"smiles": "CC(C)(C)C(=O)Nc1nnc(C2=COCCO2)o1", "IC90": 48.6}, {"smiles": "CS(=O)(=O)c1ccc(-c2nnc(NC(=O)c3ccc(Cl)s3)o2)cc1", "IC90": 1.67}, {"smiles": "O=C(Cc1ccc(F)cc1)N(CCCn1ccnc1)c1nc2ccc(F)cc2s1", "IC90": 3.39}, {"smiles": "Cc1ccc(-n2ncc3c(NC(C)C)ncnc32)cc1Cl", "IC90": 64}, {"smiles": "COc1cccc(-c2nnc(NC(=O)c3ccccc3Br)o2)c1", "IC90": 2.17}, {"smiles": "CN(C)c1ccc(C(=O)Nc2nnc(C3=COCCO3)o2)cc1", "IC90": 9.01}, {"smiles": "CC1CCc2nc(Nc3nc4cc5c(cc4s3)OCO5)sc2C1", "note": "(stereo not given)", "IC90": 14.4}, {"smiles": "Cc1ccc(-c2nnc(NC(=O)COc3ccccc3)o2)c(C)c1", "IC90": 5.5}, {"smiles": "Fc1ccc(N2CCN(c3nc(Nc4ccccc4)c4nccnc4n3)CC2)cc1", "IC90": 1.69}, {"smiles": "CCOc1ccc(NC(=O)c2c(Cl)ccc(Cl)c2Cl)cc1", "IC90": 11.7}, {"smiles": "COc1cc(OC)cc(-c2nnc(NC(=O)c3ccc([N+](=O)[O-])o3)o2)c1", "IC90": 9.08}, {"smiles": "COc1cccc(NC(=O)c2ccc(COc3cccc(C)c3)o2)c1", "IC90": 11.7}, {"smiles": "COc1ccc2nc(Nc3nc4c(F)cccc4s3)sc2c1", "IC90": 23.4}, {"smiles": "CCN(C1CCCCC1)S(=O)(=O)c1ccc(C(=O)Nc2nnc(-c3ccc(F)cc3)o2)cc1", "IC90": 5.64}, {"smiles": "COc1cccc2sc(Nc3nnc(-c4ccccc4)o3)nc12", "IC90": 6.08}, {"smiles": "N#C/C(=C\\c1c(Oc2ccccc2F)nc2ccccn2c1=O)C(N)=O", "IC90": 11.4}, {"smiles": "CC1CN(c2ncnc3c2c(-c2ccccc2)cn3-c2ccc(F)cc2)CC(C)O1", "note": "(stereo not given)", "IC90": 42.4}, {"smiles": "O=C(/C=C/c1ccccc1Cl)Nc1nnc(C2=COCCO2)o1", "IC90": 26.7}, {"smiles": "COc1ccc(C)c2sc(N(CCCn3ccnc3)C(=O)Cc3ccccc3)nc12", "IC90": 21.1}, {"smiles": "Nc1ncnc(Sc2nc3ccccc3[nH]2)c1[N+](=O)[O-]", "IC90": 17.1}, {"smiles": "COc1ccc2nc(Nc3nc(-c4cccs4)cs3)sc2c1", "IC90": 37.8}, {"smiles": "O=C(Nc1nnc(-c2ccc3c(c2)CCCC3)o1)c1ccc(Cl)s1", "IC90": 3.63}, {"smiles": "O=C(Nc1ccc(Cl)c(Cl)c1)NC1CC(=O)N(c2cccc(F)c2)C1", "note": "(stereo not given)", "IC90": 6.41}, {"smiles": "Cc1ccc(-c2nnc(NC(=O)c3ccc([N+](=O)[O-])s3)o2)c(C)c1", "IC90": 0.61}, {"smiles": "CN(C)S(=O)(=O)c1ccc(C(=O)Nc2nnc(-c3ccc(Br)cc3)o2)cc1", "IC90": 6.69}, {"smiles": "Cc1ccc(-c2nnc(NC(=O)c3c(F)cccc3F)o2)c(C)c1", "IC90": 1.25}, {"smiles": "CCc1ccc(-c2nnc3c4cc(OC)c(OC)cc4n(Cc4ccccc4F)cc2-3)cc1", "IC90": 8.11}, {"smiles": "O=C(Nc1nc(-c2ccc3c(c2)OCCO3)cs1)c1cccc(C(F)(F)F)c1", "IC90": 13.9}, {"smiles": "CCOC(=O)c1cc(NC(=O)Nc2ccc(Cl)c(Cl)c2)c(C)nc1C", "IC90": 12.4}, {"smiles": "COc1cccc2sc(Nc3nc(-c4ccc(Cl)s4)cs3)nc12", "IC90": 7.28}, {"smiles": "COc1cc(OC)cc(C(=O)Nc2nnc(-c3cccc(SC)c3)o2)c1", "IC90": 12.4}, {"smiles": "Cc1ccc(-c2nnc(NC(=O)c3ccc4c(c3)CCCC4)o2)c(C)c1", "IC90": 36.9}, {"smiles": "CCCCCOc1ccc(C(=O)Nc2nnc(-c3ccco3)o2)cc1", "IC90": 8.78}, {"smiles": "C(=N\\n1cnnc1)/c1ccc(-n2nc(-c3ccccc3)cc2-c2ccccc2)cc1", "IC90": 15.1}, {"smiles": "O=C(NCc1nnc(SCC(=O)N2CCC(Cc3ccccc3)CC2)o1)c1ccco1", "IC90": 25.1}, {"smiles": "Cc1cc(C)cc(Nc2cc(C)nc3c(-c4ccccc4)cnn23)c1", "IC90": 2.7}, {"smiles": "O=C(Nc1cccc(-c2ccc3nnc(-c4cccnc4)n3n2)c1)c1ccc(F)cc1F", "IC90": 27.6}, {"smiles": "COC(=O)c1c(NC(=O)Cc2cccc3ccccc23)sc2c1CC(C)(C)NC2(C)C", "IC90": 3.73}, {"smiles": "COc1ccc2nc(N(CCCn3ccnc3)C(=O)Cc3ccc(F)cc3)sc2c1", "IC90": 5.64}, {"smiles": "COc1ccc(C2c3cccn3CCN2C(=O)Nc2ccc(Cl)cc2)cc1", "note": "(stereo not given)", "IC90": 9.87}, {"smiles": "COc1ccc(OC)c(Nc2nc(NCCN(C)C)nc3c2cnn3-c2ccccc2)c1", "IC90": 7.29}, {"smiles": "Cc1ccc(Nc2nc(N3CCN(c4ccccc4)CC3)nc3nccnc23)cc1C", "IC90": 32}, {"smiles": "COc1ccccc1-c1nnc(NC(=O)c2sc3ccccc3c2Cl)o1", "IC90": 5.3}, {"smiles": "Cc1ccc(C)c(-c2nnc(NC(=O)c3ccccc3)o2)c1", "IC90": 24.5}, {"smiles": "O=C(/C=C/c1cccs1)N(CCCn1ccnc1)c1nc2ccccc2s1", "IC90": 1.43}, {"smiles": "COc1cc(C(=O)Nc2nnc(-c3ccc4c(c3)CCCC4)o2)cc(OC)c1OC", "IC90": 44.2}, {"smiles": "Cc1nc2c(ccc3nc(NC(=O)c4ccco4)sc32)s1", "IC90": 35}, {"smiles": "O=C(CCSc1ccccc1)Nc1nnc(-c2cccs2)o1", "IC90": 7.87}, {"smiles": "Cc1cc(C)cc(OCCCn2c(CO)nc3ccccc32)c1", "IC90": 14}, {"smiles": "COc1cccc2sc(Nc3nc4ccc(C(C)C)cc4s3)nc12", "IC90": 2.24}, {"smiles": "COc1cc(/C=C(\\C#N)c2nc(-c3ccccc3)cs2)cc([N+](=O)[O-])c1O", "IC90": 54.6}, {"smiles": "O=C(Nc1nnc(-c2ccc(Cl)cc2)o1)C1CCCCC1", "IC90": 5.6}, {"smiles": "CC(C)Oc1ccc(C(=O)Nc2nnc(-c3cc(Cl)ccc3Cl)o2)cc1", "IC90": 13.8}, {"smiles": "Cc1ccc(CC(=O)Nc2nnc(-c3ccco3)o2)c(C)c1", "IC90": 17.9}, {"smiles": "CCCCOc1cccc(C(=O)Nc2nnc(-c3cc(Cl)ccc3Cl)o2)c1", "IC90": 12.9}, {"smiles": "Cc1ccc(C)c(-c2nnc(NC(=O)c3cc(Cl)ccc3[N+](=O)[O-])o2)c1", "IC90": 0.68}, {"smiles": "O=C(Nc1nnc(-c2ccc3c(c2)OCCO3)o1)c1nc2ccccc2s1", "IC90": 25.8}, {"smiles": "Cc1ccc(C)c(-c2nnc(NC(=O)c3ccc(C#N)cc3)o2)c1", "IC90": 23.1}, {"smiles": "CC(=O)N1CCc2c(sc(NC(=O)C(C)C)c2-c2nc3ccccc3s2)C1", "IC90": 13.5}, {"smiles": "Cc1ccc2c(c1)C(c1ccccc1)N(C(=O)c1ccc(-c3ccccc3)cc1)CC(=O)N2", "note": "(stereo not given)", "IC90": 5.05}, {"smiles": "O=C(/C=C/c1ccccc1)Nc1nc2c(s1)COc1ccccc1-2", "IC90": 6.8}, {"smiles": "COc1ccc(-c2nnc(NC(=O)C(C)C)o2)cc1", "IC90": 19.9}, {"smiles": "COC(=O)c1ccc(NC(=O)CSc2nc(-c3ccc(C)cc3)ns2)cc1", "IC90": 21.3}, {"smiles": "O=C(Nc1nnc(-c2ccc(Cl)s2)o1)c1c(F)cccc1F", "IC90": 3.8}, {"smiles": "O=C(Nc1nnc(-c2ccc3c(c2)CCCC3)o1)c1ccc([N+](=O)[O-])s1", "IC90": 0.68}, {"smiles": "N=c1nnc2c3ccccc3ccc2n1O", "IC90": 41.3}, {"smiles": "CCOC(=O)COc1ccc2cc(-c3ccc(OC)c(OC)c3)c(=O)oc2c1", "IC90": 2.18}, {"smiles": "COC(=O)c1c(NC(=O)c2cc3ccccc3cc2OC)sc2c1CC(C)(C)NC2(C)C", "IC90": 31.8}, {"smiles": "Cc1ccc2sc(NNC(=O)c3cccs3)nc2c1C", "IC90": 23.2}, {"smiles": "Cc1ccc(-c2nnc(NC(=O)C3=COCCO3)o2)c(C)c1", "IC90": 7.35}, {"smiles": "O=C(CS(=O)(=O)c1ccccc1)Nc1cccc2c1C(=O)c1ccccc1C2=O", "IC90": 20.9}, {"smiles": "O=C(COc1ccccc1)Nc1nnc(-c2ccc3c(c2)CCCC3)o1", "IC90": 6.48}, {"smiles": "COc1cccc2sc(Nc3nc4ccccc4s3)nc12", "IC90": 3.41}, {"smiles": "CC(C)(C)c1csc(Nc2nc3c(F)cccc3s2)n1", "IC90": 6.52}, {"smiles": "COc1ccc2nc(Nc3nc(C(C)(C)C)cs3)sc2c1", "IC90": 10.1}, {"smiles": "COc1ccc(CC(=O)N2CCN=C2SCc2ccc(C(F)(F)F)cc2)cc1", "IC90": 23.9}, {"smiles": "Cc1cc(NC(=O)NCCCSc2nc3ccccc3o2)no1", "IC90": 29.1}, {"smiles": "Cc1cc(C)c2sc(N3CCCC3)nc2c1", "IC90": 1.75}, {"smiles": "CC(C)(C)c1ccc(C(=O)Nc2nnc(-c3ccncc3)o2)cc1", "IC90": 1.18}, {"smiles": "Cc1ccc(-n2ncc3c(NNC(=O)c4ccc(Cl)cc4Cl)ncnc32)cc1", "IC90": 11.9}]}]}
